Reference: US20190055231A1, “BACE1 INHIBITORS” (Hoffmann-La Roche Inc., priority 2016, published 2019)

Assays:
[1] = test system: Aβ40 in brain of wild-type mice; test: Mouse acute in vivo model (inhibition of Aβ40 in brain of wild-type mice); conditions: 4 h post dose
Experimental: Mouse Acute In Vivo Model (Inhibition of Aβ40 in Brain of Wild-Type Mice)
Single Dose Efficacy in Mice
The mouse single dose efficacy was measured in brain homogenate from C57Bl/6J wildtype mice after DEA extraction as described in H. Hilpert et al., J. Med. Chem. 2013, 56, 3980-3995 (dx.doi.org/10.1021/jm400225m).
Aβ 40 concentration was determined after solid phase extraction as described above and following a modified protocol from Perkin-Elmer with a commercially available antibody against the N-terminal part of rat Aβ (252Q6, Invitrogen cat. No. AMB0062) and an in-house C-terminal specific anti-Aβ40 antibody (BAP-24, Brockhaus M. et al., J. Neuroreport, 1998, 9:1481-1486) bound to acceptor beads (PerkinElmer, Cat. 6772002). 20 μl analyte per well (reconstituted extracts or standard) were loaded to a White Optiplate-96 (Perkin-Elmer, Cat#6005290). Then, a mixture of biotinylated BAP24 antibody (1:2000 diluted at approximately 1 nM final concentration) and antibody 252Q6 bound to AlphaLISA acceptor beads (Perkin-Elmer cat. No. 6772002 (1:100 diluted, 10 ug/mL final concentration) in 1× AlphaLISA buffer (Perkin-Elmer, AL000F) was added. After 1 hour room temperature incubation in the dark, 20 uL of a streptavidin coated donor beads dilution (40 μg/mL) were added and incubated for 30 minutes in the dark. Light emission at 615 nm was recorded using an EnVision AlphaScreen Reader (Perkin-Elmer). Levels of Aβ40 were calculated as percentage of the baseline samples from non-treated animals.
Aβ40 lowering was determined after oral administration in wild-type mice (C57Bl/6J mice, n=3-4) 4 h post dosing. Wild-type mice were used as they have a normal physiological level of APP expression and are thus expected to provide a better physiological model for Aβ-peptide production than APP-transgenic organisms. In vivo efficacy is a key factor for appropriate drug candidates, being more relevant than in vitro activities.

hERG channel = hERG channel (Homo sapiens, UniProt Q12809); test: hERG patch liner assay; type: cell-based
Excerpt: The methods to determine the hERG IC20 patch liner values were described in Toward a New Gold Standard for Early Safety: Automated Temperature-Controlled hERG Test on the PatchLiner. Polonchuk L., Front Pharmacol. 2012 Jan. 26; 3:3. (doi: 10.3389/fphar.2012.00003. eCollection 2012.) PMID:22303293

[2] = Cynomolgus monkey single dose PK study; type: in vivo, Cynomolgus monkey (Macacaca fascicularis)
Excerpt: Cynomolgus Monkey (Macacaca fascicularis) Single Dose PK Study and Plasma Aβ40 Determination
Blood and plasma collection will always be performed in the treatment cage. The animal care keeper grabs either one arm or one leg through the bars. The hairs are shaved for better visibility of the vein. The blood vessel is squeezed, the vein is punctured by using a butterfly and blood is taken. Once enough blood has been withdrawn a cotton swab is placed over the injection site and the needle is gently removed. Bleeding is stopped by pressing a cotton swab on the wound. Plasma samples were taken between 5 min and 48 h.
Plasma Preparation Cynomolgus
Blood is transferred into a labeled EDTA-K2 Eppendorf tube and the sample is mixed by inverting the tubes several times. Blood is stored at −20° C.

Sequence of hERG channel (Q12809 whole entry): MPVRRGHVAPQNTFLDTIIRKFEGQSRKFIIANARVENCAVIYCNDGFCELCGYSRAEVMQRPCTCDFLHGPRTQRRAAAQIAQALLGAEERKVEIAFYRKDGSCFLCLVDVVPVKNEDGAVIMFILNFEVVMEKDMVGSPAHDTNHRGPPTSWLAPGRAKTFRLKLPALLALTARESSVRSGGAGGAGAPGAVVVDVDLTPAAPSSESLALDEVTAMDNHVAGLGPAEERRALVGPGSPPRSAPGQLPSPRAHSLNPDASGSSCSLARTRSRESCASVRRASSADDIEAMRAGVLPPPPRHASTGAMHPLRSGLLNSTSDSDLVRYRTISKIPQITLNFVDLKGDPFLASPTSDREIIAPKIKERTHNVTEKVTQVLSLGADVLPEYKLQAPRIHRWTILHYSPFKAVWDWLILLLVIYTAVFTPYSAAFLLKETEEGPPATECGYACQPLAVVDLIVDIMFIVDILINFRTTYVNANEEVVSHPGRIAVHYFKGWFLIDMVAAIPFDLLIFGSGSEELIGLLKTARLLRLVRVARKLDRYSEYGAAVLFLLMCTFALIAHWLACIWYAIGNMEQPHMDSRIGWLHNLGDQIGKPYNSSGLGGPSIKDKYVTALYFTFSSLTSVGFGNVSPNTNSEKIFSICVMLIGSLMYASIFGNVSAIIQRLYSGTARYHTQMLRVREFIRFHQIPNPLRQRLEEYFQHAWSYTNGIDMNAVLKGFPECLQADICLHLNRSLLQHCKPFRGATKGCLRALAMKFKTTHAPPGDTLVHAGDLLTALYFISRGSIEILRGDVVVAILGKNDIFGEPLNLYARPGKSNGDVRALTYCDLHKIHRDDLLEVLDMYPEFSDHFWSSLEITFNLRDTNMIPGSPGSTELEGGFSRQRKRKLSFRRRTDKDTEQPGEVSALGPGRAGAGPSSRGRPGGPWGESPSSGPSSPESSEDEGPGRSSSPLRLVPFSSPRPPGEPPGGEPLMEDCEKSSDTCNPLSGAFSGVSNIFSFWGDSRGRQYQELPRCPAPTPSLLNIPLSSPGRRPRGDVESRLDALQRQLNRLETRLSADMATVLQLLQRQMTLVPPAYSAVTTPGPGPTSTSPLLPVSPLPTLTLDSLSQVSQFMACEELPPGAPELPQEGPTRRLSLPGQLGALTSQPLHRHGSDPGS

Structure (SMILES): Cc1cc(C#N)cnc1C(=O)Nc1ccc(F)c([C@@]2(C)N=C(N)O[C@H](C(F)(F)F)[C@@H]2F)n1 [Example 1, N-(6-((4R,5R,6S)-2-amino-5-fluoro-4-methyl-6-(trifluoromethyl)-5,6-dihydro-4H-1,3-oxazin-4-yl)-5-fluoropyridin-2-yl)-5-cyano-3-methylpicolinamide]
- Brain Aβ-lowering 3 mg/kg ([1]; single p.o. dose 3 mg/kg): 58%
- Brain Aβ-lowering 10 mg/kg ([1]; single p.o. dose 10 mg/kg): 92%
- improvement of the hERG safety margin versus comparator 6 (hERG channel; at approximately 80% reduction of Aβ40 in rat CSF): 17 fold
- IC20 (hERG channel; human, hERG patchliner assay): 2340 nM
- AUC(0-24)/D p.o. ([2]; p.o., dose normalized): 4160 kg·ng·h/mL/mg
- clearance ([2]; plasma): 2.1 mL/min/kg
- bioavailability ([2]; plasma, po, read-out: Oral Bioavailability F): 52%
- half-life ([2]; plasma, po, read-out: t1/2 p.o. (converted)): 19 h
